Measured values reported in patent publication EP3504969B1, “COMPOSITION FOR CONTROLLING FUNGAL INFECTION CAUSED BYNOSEMA CERANAE” (Universidad De Chile, priority 2015, dated 2017).

What was measured:
Nosema ceranae [1] = experiment: Confirmation efficacy test (Marchámalo): spore reduction in infected bees, days 5, 6 and 7; type: in vivo, Apis mellifera; settings: day 7; CD14 daily dose 4 µg/bee; fumagillin 240 µg/bee; p = 0.0001
Experimental: The AEselec in the previous paragraph (selected for its higher efficacy and higher yield) was assayed to confirm its activity against nosemosis using standardized tests in the Pathology Laboratory of the Centro Agrario de Marchámalo, Spain. Consequently, 3 groups of treatments were used, comprising 3 cages each and 35 bees/cage, born in laboratory, which, after a waiting period of 7 days, were infected with a load of 5 × 10^4 spores per bee. Later, a waiting period of 5 days passed to begin the application of the treatment in the ad libitum feeding. (Higes, 2007; Higes et al., 2010): • 1. Group without infection, negative control (Nl) • 2. Group infected with Nosema spp. spores, untreated positive control to which only 50% sucrose syrup with a 2% L-promoter (IST) shall be given, • 3. Group infected with Nosema spp. spores treated with peumo AE (ICT).
Spores. […] Both environmental variables were monitored through the installation of an environmental thermohygrometer. […]
Figure 6. Effectiveness of CD14 indicated as a percentage of spore reduction on days 5, 6 and 7 days of treatment at a daily dose of CD14, of 4µg/bee and 20 µg/bee of the majority of the evaluated monoterpenes. […]

Nosema ceranae [2] = settings: laboratory studies; result in words; cited from earlier work

Compound | inhibited the growth of N. ceranae spores (Nosema ceranae [1]) | reducing the spore load of Nosema ceranae (Nosema ceranae [2])
CO[C@@H]1[C@H](OC(=O)/C=C/C=C/C=C/C=C/C(=O)O)CC[C@]2(CO2)[C@H]1[C@@]1(C)O[C@@H]1CC=C(C)C [fumagillin] | about 80% | 
Oc1ccc(C=Cc2cc(O)cc(O)c2)cc1 [resveratrol] |  | significant effects
Cc1ccc(C(C)C)c(O)c1 [thymol] |  | significant effects
